Entries after “also recorded” stand apart in the source; their conditions may differ.
Assays:
H3255 = assay: Effect on cell apoptosis (Western Blot, PARP and Caspase 3 cleavage), H3255; assay type: cell-based; conditions: H3255 (EGFR L858R), 24 hours
Text: (§1) In order to confirm whether the death of cells is through apoptosis or necrosis after administration of drugs, non-small cell lung cancer cell A549 (expressing wild-type EGFR gene), non-small cell lung cancer cell line H1975 (expressing EGFR L858R/T790M double mutant gene), non-small cell lung cancer cell line H3255 (expressing EGFR L858R mutant gene), non-small cell lung cancer cell line H3122 (expressing ALK gene) cell line, and non-small cell lung cancer cell line PC-9 (expressing EGFR delE746_A750 mutant gene) were tested for effect of Compound 1 on cleavage of poly ADP-ribose polymerase PARP which is a DNA repair enzyme and Caspase 3, which were closely related to cell apoptosis. […] Western Blot was used to detect the effect of various concentrations of drugs at various time points on cleavage of poly ADP-ribose polymerase PARP which is a DNA repair enzyme and Caspase 3.

[1] = tested on: non-small cell lung cancer cell PC-9 subcutaneous tumors; assay: Mouse tumor model of non-small cell lung cancer cell PC-9; assay type: in vivo; conditions: PC-9 tumor model; for tumor inhibition rate: Bal b/c mice, after 8 days of administration
Protocol: 24 Bal b/c female mice, 4-6 weeks old, were purchased from Shanghai SLAC Laboratory Animal Co., Ltd., and maintained in an SPF laboratory. Drinking water and bedding were both sterilized by autoclaving. All operations involving the mice were performed under aseptic conditions. At day 0, 5×10^6 non-small cell lung cancer cells PC9 (purchased from ATCC) were injected subcutaneously into the left flank of all mice. At day 15, all mice were divided into four groups (6 mice per group), and the first group of mice were orally administered with methyl cellulose (HKI) solvent, the second group of mice were orally administered with Compound 1 at a dose of 25 mg/kg mouse weight, the third group of mice were orally administered with Compound 1 at a dose of 50 mg/kg mouse weight, and the fourth group of mice were orally administered with Compound 1 at a dose of 100 mg/kg mouse weight daily. Starting from the administration, the length/width of the subcutaneous tumor was measured daily with a vernier caliper, and the weight of the mice was recorded daily to observe the effect of Compound 1 on the body weight of the mice. The mice were sacrificed at day 36 and the subcutaneous tumors were collected. The tumors were weighed, and then the tumor tissues were used to prepare protein lysates for use. The growth trend of the subcutaneous tumor within 16-36 days was plotted, wherein the tumor volume was calculated as length×width×width/2 mm^3.

PC-9 = assay: Effect on cell cycle (PI staining, flow cytometer), PC-9; assay type: cell-based, human; conditions: PC-9 (EGFR delE746_A750), 24 hours
Text: In order to study which growth phase the cell was halted after administration of the drugs, five cell lines including non-small cell lung cancer cell line A549 (expressing wild-type EGFR gene), non-small cell lung cancer cell line H1975 (expressing EGFR L858R/T790M double mutant gene), non-small cell Lung cancer cell line PC-9 (expressing EGFR delE746_A750 mutant gene), non-small cell lung cancer cell line H3255 (expressing EGFR L858R mutant gene) and non-small cell lung cancer cell NCI-H3122 (expressing ALK gene) were tested for effect of Compound 1 on cell cycle distribution. Two cell lines including non-small cell lung cancer cell NCI-H3122 (expressing ALK gene) and non-small cell lung cancer cell H1975 (expressing EGFR L858R/T790M double mutant gene) were tested for effect of Compound 10 on cell cycle distribution. […]

A549 = assay: Effect on cell apoptosis (Western Blot, PARP and Caspase 3 cleavage), A549; assay type: cell-based, human; conditions: A549 (wild-type EGFR), 24 hours
Text: as §1

[2] = tested on: EGFR protein (EGFR L858R, H3255); assay: Effect on signaling pathway in cells, H3255; assay type: cell-based; conditions: 4 h
Text: In four cell lines (all purchased from ATCC) including non-small cell lung cancer cell line A549 (expressing wild-type EGFR gene), non-small cell lung cancer cell line H1975 (expressing EGFR L858R/T790M double mutant gene), non-small cell lung cancer cell line H3255 (expressing EGFR L858R mutant gene) and non-small cell lung cancer cell line PC-9 (expressing EGFR delE746_A750 mutant gene), the effect of Compound 1 on EGFR or other protein kinases related to signaling pathways of EGFR such as Stat3, AKT, ErK, eIF4E, 4EBP1, P70S6K was assessed by assaying a number of cellular biochemical and functional endpoints. […] The effect of Compound 1 on phosphorylation of Stat3Y705, AKT T308, AKT 5473, Erk T202/204, EGFR Y1068, P70S6K Thr389, eIF4E Ser209, Erk T202/204, 4EBP1 (Thr37/46) in these cell lines was assayed (FIGS. 1a to 1d).

C=CC(=O)Nc1cc(Nc2ncc(Cl)c(Nc3ccccc3S(=O)(=O)C(C)C)n2)c(OC)cc1N1CCN(CC)CC1 [Compound 1, N-(5-(5-chloro-4-(2-(isopropylsulfonyl)phenylamino)pyrimidin-2-ylamino)-2-(4-ethylpiperazin-1-yl)-4-methoxyphenyl)acrylamide] was tested, and the “concentration at which evident cleavage of PARP and Caspase 3 could be observed” value (H3255) was 0.03 µM, the tumor inhibition rate ([1]; oral daily 25 mg/kg) was 89.8% and the tumor inhibition rate ([1]; oral daily 50 mg/kg) was 95.1%. The tumor inhibition rate ([1]; oral daily 100 mg/kg) was 98.7%, the “body weight of the mice” value ([1]; oral daily 25 mg/kg, 25 mg/kg) was “barely affect the body weight; also recorded: did not decrease” and the “body weight of the mice” value ([1]; oral daily 50 mg/kg) was “did not decrease”. For the same compound, the “effect on cell cycle distribution” value (PC-9) was “halt the cells in G0-G1 phase”, the “cleavage of PARP or Caspase 3 (apoptosis)” value (A549) was “not observed” and the “concentration able to significantly inhibit the phosphorylation of EGFR protein (also affects AKT and ERK phosphorylation)” value [2] was 0.3 µM.

From patent US10350210B2, “EGFR and ALK dual inhibitor” (PRECEDO PHARMACEUTICALS CO., LTD, priority 2015, dated 2019)
